Measured values from patent US20230015478A1, “GLP-1 RECEPTOR AGONISTS HAVING IMPROVED PHARMACOLOGICAL AND DRUG DELIVERY PROPERTIES” (priority 2021, published 2023).
Square brackets hold non-standard residues; d marks the D form. Peptide text beside a SMILES is read from it. Bip = N[C@@H](Cc1ccc(-c2ccccc2)cc1)C(=O)O; αMePhe(2-F) = C[C@](N)(Cc1ccccc1F)C(=O)O; Phe(2-F) = N[C@@H](Cc1ccccc1F)C(=O)O; Aib = CC(C)(N)C(=O)O

target: T1, hGLP1 receptor (Homo sapiens, UniProt P43220); test: cAMP HTRF agonist assay in HEK cells co-expressing hGLP1 receptor and CRE-Luciferase; assay type: cell-based; settings: Table 2; cell marked (0% albumin); read-out: cAMP EC50, nM (0% albumin)
T1 construct: expressed in transfected cells; host or cells: HEK (human embryonic kidney) cells co-expressing hGLP1 receptor and CRE-Luciferase
T1 sequence (P43220 24-463): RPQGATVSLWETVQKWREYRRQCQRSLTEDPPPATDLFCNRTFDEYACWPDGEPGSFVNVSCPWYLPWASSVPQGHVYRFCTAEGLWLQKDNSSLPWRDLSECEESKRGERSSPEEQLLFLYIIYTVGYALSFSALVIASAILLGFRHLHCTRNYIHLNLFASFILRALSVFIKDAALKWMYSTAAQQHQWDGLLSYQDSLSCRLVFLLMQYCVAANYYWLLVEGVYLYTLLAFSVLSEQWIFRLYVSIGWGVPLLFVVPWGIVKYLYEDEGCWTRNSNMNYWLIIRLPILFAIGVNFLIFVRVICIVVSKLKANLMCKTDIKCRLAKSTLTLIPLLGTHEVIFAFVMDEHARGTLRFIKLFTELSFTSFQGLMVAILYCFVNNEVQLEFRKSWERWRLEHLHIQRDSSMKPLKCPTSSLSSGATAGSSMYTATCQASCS
Protocol: Human embryonic kidney cells (HEK) co-expressing the hGLP1 receptor and CRE-Luciferase construct were used to determine agonist potency in this assay. The cells were thawed briefly at 37° C., transferred to a sterile tube and re-suspended in complete media at 37° C. Cells were centrifuged at 1000 rpm for 5 minutes and cells collected; cells were re-suspended in assay buffer consisting of DPBS (GIBCO) with 500 μM of the phosphodiesterase inhibitor IBMX. […] The optimal cell density was determined to be 1000 cells/well; cells were added to wells in 384-well plates containing appropriate pre-prepared dilutions of compounds (test peptides or reference compound exendin-4), sealed and incubated with CO2 for 30 min. Test peptide solutions were diluted from 10 mM stock solutions; for most peptides an initial run was performed in duplicate from a maximal concentration of 1.0 μM, with 11 concentrations tested for each peptide using serial 1:3 dilution from this maximal concentration. […] The agonist assay was a homogeneous time-resolved fluorescence (HTRF) assay (Cisbio).
Following incubation of the cells for 30 minutes with test or reference peptides, 5 μL of the cAMP acceptor cAMP-d2, prepared previously as a working solution from frozen stock (1:20 dilution), was added to each well of the assay plate, along with 5 μL of anti-cAMP antibody-cryptate working solution (diluted 1:20 from frozen stock). The wells were incubated for 1 hour at room temperature, and fluorescence was then read at 665 and 615 nm with an Envision reader with TRF laser. Data were saved and analyzed using Prism software (GraphPad). Concentration-response analysis was performed using 4-parameter logistic fits of the resulting data, and EC50 values obtained for each test and reference compound.

| Structure (SMILES) | EC50 [nM] |
| --- | --- |
| C[C@H](NC(=O)[C@H](CCC(=O)O)NC(=O)C(C)(C)NC(=O)[C@@H](N)Cc1c[nH]cn1)C(=O)N[C@H](C(=O)N[C@@H](Cc1ccccc1F)C(=O)N[C@H](C(=O)N[C@@H](CO)C(=O)N[C@@H](CC(=O)O)C(=O)N[C@@H](Cc1ccc(-c2ccccc2)cc1)C(=O)N[C@@H](Cc1ccc(-c2ccccc2)cc1)C(N)=O)[C@@H](C)O)[C@@H](C)O [3-23, H2N-His-Aib-Glu-Ala-Thr-Phe(2F)-Thr-Ser-Asp-Bip-Bip-C(O)NH2] (H-H[Aib]EAT[Phe(2-F)]TSD[Bip][Bip]-NH2) | 347 |

same assay, conditions: cAMP EC50, nM (0.1% albumin), Table 2; 0.1% albumin

| Structure (SMILES) | EC50 [nM] |
| --- | --- |
| C[C@H](NC(=O)[C@@H](N)Cc1c[nH]cn1)C(=O)N[C@@H](CCC(=O)O)C(=O)NCC(=O)N[C@H](C(=O)N[C@@H](Cc1ccccc1F)C(=O)N[C@H](C(=O)N[C@@H](CO)C(=O)N[C@@H](CC(=O)O)C(=O)N[C@@H](Cc1ccc(-c2ccccc2)cc1)C(=O)N[C@@H](Cc1ccc(-c2ccccc2)cc1)C(N)=O)[C@@H](C)O)[C@@H](C)O [3-21, H2N-His-Ala-Glu-Gly-Thr-Phe(2-F)-Thr-Ser-Asp-Bip-Bip-C(O)NH2] (H-HAEGT[Phe(2-F)]TSD[Bip][Bip]-NH2) | 0.29 |
| C[C@H](NC(=O)C(C)(C)NC(=O)[C@@H](N)Cc1c[nH]cn1)C(=O)NCC(=O)N[C@H](C(=O)N[C@@H](Cc1ccccc1F)C(=O)N[C@H](C(=O)N[C@@H](CO)C(=O)N[C@@H](CC(=O)O)C(=O)N[C@@H](Cc1ccc(-c2ccccc2)cc1)C(=O)N[C@@H](Cc1ccc(-c2ccccc2)cc1)C(N)=O)[C@@H](C)O)[C@@H](C)O [3-22, H2N-His-Aib-Ala-Gly-Thr-Phe(2-F)-Thr-Ser-Asp-Bip-Bip-C(O)NH2] (H-H[Aib]AGT[Phe(2-F)]TSD[Bip][Bip]-NH2) | 20.3 |
| C[C@H](NC(=O)CNC(=O)[C@H](CCC(=O)O)NC(=O)C(C)(C)NC(=O)[C@@H](N)Cc1c[nH]cn1)C(=O)N[C@@H](Cc1ccccc1F)C(=O)N[C@H](C(=O)N[C@@H](CO)C(=O)N[C@@H](CC(=O)O)C(=O)N[C@@H](Cc1ccc(-c2ccccc2)cc1)C(=O)N[C@@H](Cc1ccc(-c2ccccc2)cc1)C(N)=O)[C@@H](C)O [3-24, H2N-His-Aib-Glu-Gly-Ala-Phe(2-F)-Thr-Ser-Asp-Bip-Bip-C(O)NH2] (H-H[Aib]EGA[Phe(2-F)]TSD[Bip][Bip]-NH2) | 28.1 |
| C[C@H](NC(=O)[C@H](Cc1ccccc1F)NC(=O)[C@@H](NC(=O)CNC(=O)[C@H](CCC(=O)O)NC(=O)C(C)(C)NC(=O)[C@@H](N)Cc1c[nH]cn1)[C@@H](C)O)C(=O)N[C@@H](CO)C(=O)N[C@@H](CC(=O)O)C(=O)N[C@@H](Cc1ccc(-c2ccccc2)cc1)C(=O)N[C@@H](Cc1ccc(-c2ccccc2)cc1)C(N)=O [3-25, H2N-His-Aib-Glu-Gly-Thr-Phe(2-F)-Ala-Ser-Asp-Bip-Bip-C(O)NH2] (H-H[Aib]EGT[Phe(2-F)]ASD[Bip][Bip]-NH2) | 79.1 |
| C[C@H](NC(=O)[C@@H](NC(=O)[C@H](Cc1ccccc1F)NC(=O)[C@@H](NC(=O)CNC(=O)[C@H](CCC(=O)O)NC(=O)C(C)(C)NC(=O)[C@@H](N)Cc1c[nH]cn1)[C@@H](C)O)[C@@H](C)O)C(=O)N[C@@H](CC(=O)O)C(=O)N[C@@H](Cc1ccc(-c2ccccc2)cc1)C(=O)N[C@@H](Cc1ccc(-c2ccccc2)cc1)C(N)=O [3-26, H2N-His-Aib-Glu-Gly-Thr-Phe(2-F)-Thr-Ala-Asp-Bip-Bip-C(O)NH2] (H-H[Aib]EGT[Phe(2-F)]TAD[Bip][Bip]-NH2) | 18.9 |
| C[C@H](NC(=O)[C@H](CO)NC(=O)[C@@H](NC(=O)[C@H](Cc1ccccc1F)NC(=O)[C@@H](NC(=O)CNC(=O)[C@H](CCC(=O)O)NC(=O)C(C)(C)NC(=O)[C@@H](N)Cc1c[nH]cn1)[C@@H](C)O)[C@@H](C)O)C(=O)N[C@@H](Cc1ccc(-c2ccccc2)cc1)C(=O)N[C@@H](Cc1ccc(-c2ccccc2)cc1)C(N)=O [3-27, H2N-His-Aib-Glu-Gly-Thr-Phe(2-F)-Thr-Ser-Ala-Bip-Bip-C(O)NH2] (H-H[Aib]EGT[Phe(2-F)]TSA[Bip][Bip]-NH2) | 67 |
| C[C@H](NC(=O)[C@H](CC(=O)O)NC(=O)[C@H](CO)NC(=O)[C@@H](NC(=O)[C@H](Cc1ccccc1F)NC(=O)[C@@H](NC(=O)CNC(=O)[C@H](CCC(=O)O)NC(=O)C(C)(C)NC(=O)[C@@H](N)Cc1c[nH]cn1)[C@@H](C)O)[C@@H](C)O)C(=O)N[C@@H](Cc1ccc(-c2ccccc2)cc1)C(N)=O [3-28, H2N-His-Aib-Glu-Gly-Thr-Phe(2-F)-Thr-Ser-Asp-Ala-Bip-C(O)NH2] (H-H[Aib]EGT[Phe(2-F)]TSDA[Bip]-NH2) | > 1000 |
| C[C@H](NC(=O)[C@H](Cc1ccc(-c2ccccc2)cc1)NC(=O)[C@H](CC(=O)O)NC(=O)[C@H](CO)NC(=O)[C@@H](NC(=O)[C@H](Cc1ccccc1F)NC(=O)[C@@H](NC(=O)CNC(=O)[C@H](CCC(=O)O)NC(=O)C(C)(C)NC(=O)[C@@H](N)Cc1c[nH]cn1)[C@@H](C)O)[C@@H](C)O)C(N)=O [3-29, H2N-His-Aib-Glu-Gly-Thr-Phe(2-F)-Thr-Ser-Asp-Bip-Ala-C(O)NH2] | > 1000 |

same assay, conditions: cAMP EC50, nM (0.1% albumin), Table 3; 0.1% albumin

| Structure (SMILES) | EC50 [nM] |
| --- | --- |
| C[C@@H](O)[C@H](NC(=O)CNC(=O)[C@H](CCC(=O)O)NC(=O)C(C)(C)NC(=O)C(C)(C)N)C(=O)N[C@@](C)(Cc1ccccc1F)C(=O)N[C@H](C(=O)N[C@@H](CO)C(=O)N[C@@H](CC(=O)O)C(=O)N[C@@H](Cc1ccc(-c2ccccc2)cc1)C(=O)N[C@@H](Cc1ccc(-c2ccccc2)cc1)C(N)=O)[C@@H](C)O [3-30, H2N-Aib-Aib-Glu-Gly-Thr-αMePhe(2-F)-Thr-Ser-Asp-Bip-Bip-C(O)NH2] (H-[Aib][Aib]EGT[αMePhe(2-F)]TSD[Bip][Bip]-NH2) | 2.7 |
| C[C@@H](O)[C@H](NC(=O)CNC(=O)C(C)(C)NC(=O)C(C)(C)NC(=O)[C@@H](N)Cc1c[nH]cn1)C(=O)N[C@@](C)(Cc1ccccc1F)C(=O)N[C@H](C(=O)N[C@@H](CO)C(=O)N[C@@H](CC(=O)O)C(=O)N[C@@H](Cc1ccc(-c2ccccc2)cc1)C(=O)N[C@@H](Cc1ccc(-c2ccccc2)cc1)C(N)=O)[C@@H](C)O [3-31, H2N-His-Aib-Aib-Gly-Thr-αMePhe(2-F)-Thr-Ser-Asp-Bip-Bip-C(O)NH2] (H-H[Aib][Aib]GT[αMePhe(2-F)]TSD[Bip][Bip]-NH2) | 4.9 |
| C[C@@H](O)[C@H](NC(=O)C(C)(C)NC(=O)[C@H](CCC(=O)O)NC(=O)C(C)(C)NC(=O)[C@@H](N)Cc1c[nH]cn1)C(=O)N[C@@](C)(Cc1ccccc1F)C(=O)N[C@H](C(=O)N[C@@H](CO)C(=O)N[C@@H](CC(=O)O)C(=O)N[C@@H](Cc1ccc(-c2ccccc2)cc1)C(=O)N[C@@H](Cc1ccc(-c2ccccc2)cc1)C(N)=O)[C@@H](C)O [3-32, H2N-His-Aib-Glu-Aib-Thr-αMePhe(2-F)-Thr-Ser-Asp-Bip-Bip-C(O)NH2] (H-H[Aib]E[Aib]T[αMePhe(2-F)]TSD[Bip][Bip]-NH2) | 15.8 |
| C[C@@H](O)[C@H](NC(=O)[C@](C)(Cc1ccccc1F)NC(=O)C(C)(C)NC(=O)CNC(=O)[C@H](CCC(=O)O)NC(=O)C(C)(C)NC(=O)[C@@H](N)Cc1c[nH]cn1)C(=O)N[C@@H](CO)C(=O)N[C@@H](CC(=O)O)C(=O)N[C@@H](Cc1ccc(-c2ccccc2)cc1)C(=O)N[C@@H](Cc1ccc(-c2ccccc2)cc1)C(N)=O [3-33, H2N-His-Aib-Glu-Gly-Aib-αMePhe(2-F)-Thr-Ser-Asp-Bip-Bip-C(O)NH2] (H-H[Aib]EG[Aib][αMePhe(2-F)]TSD[Bip][Bip]-NH2) | 7.3 |
| C[C@@H](O)[C@H](NC(=O)CNC(=O)[C@H](CCC(=O)O)NC(=O)C(C)(C)NC(=O)[C@@H](N)Cc1c[nH]cn1)C(=O)N[C@@](C)(Cc1ccccc1F)C(=O)NC(C)(C)C(=O)N[C@@H](CO)C(=O)N[C@@H](CC(=O)O)C(=O)N[C@@H](Cc1ccc(-c2ccccc2)cc1)C(=O)N[C@@H](Cc1ccc(-c2ccccc2)cc1)C(N)=O [3-35, H2N-His-Aib-Glu-Gly-Thr-αMePhe(2-F)-Aib-Ser-Asp-Bip-Bip-C(O)NH2] (H-H[Aib]EGT[αMePhe(2-F)][Aib]SD[Bip][Bip]-NH2) | 91.4 |
| C[C@@H](O)[C@H](NC(=O)CNC(=O)[C@H](CCC(=O)O)NC(=O)C(C)(C)NC(=O)[C@@H](N)Cc1c[nH]cn1)C(=O)N[C@@](C)(Cc1ccccc1F)C(=O)N[C@H](C(=O)NC(C)(C)C(=O)N[C@@H](CC(=O)O)C(=O)N[C@@H](Cc1ccc(-c2ccccc2)cc1)C(=O)N[C@@H](Cc1ccc(-c2ccccc2)cc1)C(N)=O)[C@@H](C)O [3-36, H2N-His-Aib-Glu-Gly-Thr-αMePhe(2-F)-Thr-Aib-Asp-Bip-Bip-C(O)NH2] (H-H[Aib]EGT[αMePhe(2-F)]T[Aib]D[Bip][Bip]-NH2) | 150 |
| C[C@@H](O)[C@H](NC(=O)CNC(=O)[C@H](CCC(=O)O)NC(=O)C(C)(C)NC(=O)[C@@H](N)Cc1c[nH]cn1)C(=O)N[C@@](C)(Cc1ccccc1F)C(=O)N[C@H](C(=O)N[C@@H](CO)C(=O)NC(C)(C)C(=O)N[C@@H](Cc1ccc(-c2ccccc2)cc1)C(=O)N[C@@H](Cc1ccc(-c2ccccc2)cc1)C(N)=O)[C@@H](C)O [3-37, H2N-His-Aib-Glu-Gly-Thr-αMePhe(2-F)-Thr-Ser-Aib-Bip-Bip-C(O)NH2] (H-H[Aib]EGT[αMePhe(2-F)]TS[Aib][Bip][Bip]-NH2) | 91.6 |
